Like-named read-outs stand apart in the source and are kept apart here. Marks after values point to notes of the source that are not given here.
Legend:
[1] = tested on: Canton-S (DDT susceptible flies) and para^tsl (DDT resistant flies); assay: Initial screen of DDT and 8 pyrethroids, Canton-S versus para^tsl flies; format: in vivo, Drosophila melanogaster; details: for Fly Line Preferentially Killed by the Toxin: across the doses
Method: A test was conducted utilizing an initial screen of DDT and 8 pyrethroids against Canton-S (DDT susceptible flies) and para^tsl (DDT resistant flies). […]

para^tsl flies = assay: Fly mortality bioassay, para^tsl; format: in vivo, Drosophila melanogaster; details: for Resistance Ratio: Para^tsl
Method: (§1) A test was conducted utilizing an initial screen of DDT and 8 pyrethroids against Canton-S (DDT susceptible flies) and para^tsl (DDT resistant flies).
(§2) As a further step in the test, heterozygotes were tested with either deltamethrin or DDT.

heterozygous fly lines [2] = details: stated as known; cited from earlier work
Canton-S flies = assay: Fly mortality bioassay, Canton-S; format: in vivo, Drosophila melanogaster; details: for Resistance Ratio: Canton-S, LD50 over LD50 of para^tsl males
Method: as §1, §2

heterozygous fly lines [3] = assay: Fly mortality bioassay, heterozygotes; format: in vivo, Drosophila melanogaster
Method: as §2
An additional test was conducted to determine if DDT and deltamethrin applied at the same time killed the heterozygotes.
FIG. 17 graphically illustrates the application of deltamethrin by itself 220, the application of DDT by itself 222, and the application of both deltamethrin and DDT at the same time 224 to para^tsl flies, Canton-S flies, and heterozygotes.

[4] = tested on: Mycosphaeralla graminicola Wild type and Tri R1 resistant strains; assay: Cross-resistance comparison of resistant and wild type fungal lines; format: cell-based; details: for Resistance Ratio: Tri R1 resistant versus wild type; for Resistance Type: compared to resistance to Triadimenol, not tested statistically; for Possible Resistance Type: after Bonferroni correction
Text: In one embodiment, large-scale screens are utilized to determine NCR toxins that can be used against fungicide resistance. For such a screen, there will be one of three outcomes: (1) positive cross-resistance, (2) neutral (no cross-resistance), and (3) negative cross-resistance. Table 3 illustrates the EC50 for each toxin as given on two lines of Mycosphaeralla graminicola. The EC50 is the effective concentration that will kill fifty percent of the organisms in a test population. One line is Triadimenol susceptible and the other line is resistant to this compound. An estimate is made of the nature of resistance of these two lines to nine other toxins. The resistance is defined as (i) positive cross-resistance, (ii) negative cross-resistance or (iii) no cross-resistance (neutral) as compared to the resistance to Triadimenol (1RS,2RS;1RS,2RS)-1-(4chlorophenoxy)-3,3-dimethyl-1-(1H-1,2,4-trizol-1-yl) butan-1-o. Such a comparison is useful in a large-scale screen for NCR toxins for fungicides.
Three of the compounds listed in Table 3 are indicated as potential NCR toxins (Triflumizole, Ferarimol, and Nuarimol). In one embodiment, screening resources are used efficiently, i.e. the potential for identifying false-positives is minimized, by focusing on investigating potential NCR toxins through a test with a correction factor, such as a Bonferroni correction. Alternatively, other correction factors can be used including, but not limited to, Duncan's method. […] Where differential toxicity occurs between the two fungal lines on a given toxin, a difference in toxicity between the two lines is determined. If the fungal line that was resistant to the first toxin (e.g. Triadimenol) is now more susceptible to the new toxin (e.g. Triflumizole, Ferarimol, or Nuarimol) potential NCR toxin pairs are identified.
Differences between toxins, in terms of NCR activity, may be indicated where such differences may not truly exist (type I error in statistical hypothesis testing). In the present example, the confidence interval is extended using, for example, Bonferroni correction, which is needed to control for false positives in detection of NCR toxins in large-screen tests. A NCR factor is declared if the second toxin requires a lower dosage to kill the resistant line as compared to the wild type fungal line or lines. The consequences of a failure to use Bonferroni correction normally results in higher numbers of false positives in a large-scale screen. Toxins that are selected on the basis of no correction may still be considered as putative NCR toxins, but deserving less consideration than those identified using the correction method. A Bonferroni correction is thus performed on the three putative NCR toxins (and the reference toxin) to determine if one of the toxins is a NCR factor.
Table 4 illustrates the Bonferroni corrected data (from Table 3 above) of the reference compound (Triadimenol) and the three putative NCR toxins for fungicide resistance. The correction was made based on four compounds tested, each with minimally five doses to calculate the effective concentration fifty (EC50).

TF-FVIIa complex = TF-FVIIa complex (Homo sapiens, UniProt P08709); details: Inhibitor concentration ± standard error; read-out: FX activation (IC50); cited from earlier work
[5] = tested on: Drosophila sodium channel, para, resistance mutation line; details: mutation not observed in nature; cited from earlier work

Sequence of TF-FVIIa complex (P08709 213-466 limits assumed): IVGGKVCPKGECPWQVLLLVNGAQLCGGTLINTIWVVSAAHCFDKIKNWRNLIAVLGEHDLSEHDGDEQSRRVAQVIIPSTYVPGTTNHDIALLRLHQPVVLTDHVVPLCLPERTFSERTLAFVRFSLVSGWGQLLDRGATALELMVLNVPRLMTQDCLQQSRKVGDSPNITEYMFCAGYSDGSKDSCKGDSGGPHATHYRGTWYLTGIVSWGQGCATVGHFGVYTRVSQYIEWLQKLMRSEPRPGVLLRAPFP
Sequence of TF-FVIIa complex (P08709 61-212 limits assumed): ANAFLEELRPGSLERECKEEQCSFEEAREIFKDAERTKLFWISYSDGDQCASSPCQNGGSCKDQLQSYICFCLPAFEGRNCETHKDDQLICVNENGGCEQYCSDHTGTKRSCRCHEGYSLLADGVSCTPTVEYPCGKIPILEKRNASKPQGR
Sequence of TF-FVIIa complex (P13726 33-295 partner): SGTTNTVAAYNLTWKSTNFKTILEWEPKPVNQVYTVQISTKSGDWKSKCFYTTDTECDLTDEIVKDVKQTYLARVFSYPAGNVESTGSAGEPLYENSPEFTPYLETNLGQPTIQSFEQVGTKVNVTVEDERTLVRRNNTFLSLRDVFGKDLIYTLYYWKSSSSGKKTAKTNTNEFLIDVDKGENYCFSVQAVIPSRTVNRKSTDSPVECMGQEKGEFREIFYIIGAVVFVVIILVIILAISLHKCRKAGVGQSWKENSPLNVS

## CC(C)[C@H](C(=O)O[C@H](C#N)c1cccc(Oc2ccccc2)c1)c1ccc(Cl)cc1 [Asana]
[1]
  Fly Line Preferentially Killed by the Toxin: Neither

## C=CCC1=C(C)C(OC(=O)C2C(C=C(C)C)C2(C)C)CC1=O [D-trans allethrin]
[1]
  Fly Line Preferentially Killed by the Toxin: Neither

## Clc1ccc(C(c2ccc(Cl)cc2)C(Cl)(Cl)Cl)cc1 [DDT]
[1]
  Fly Line Preferentially Killed by the Toxin: Canton-S
para^tsl flies; Dose 0.2
  Percent Dead Para^tsl: 13.3%
para^tsl flies; Dose 0.5
  Percent Dead Para^tsl: 0%
para^tsl flies; Dose 1
  Percent Dead Para^tsl: 0%
para^tsl flies; Dose 2
  Percent Dead Para^tsl: 3.3%
para^tsl flies; Dose 5
  Percent Dead Para^tsl: 6.7%
para^tsl flies; Dose 8
  Percent Dead Para^tsl: 23.3%
para^tsl flies; Dose 10
  Percent Dead Para^tsl: 13.3%
para^tsl flies; Dose 15
  Percent Dead Para^tsl: 8.3%
para^tsl flies; Dose 20
  Percent Dead Para^tsl: 6.7%
Heterozygous fly lines [2]
  Resistance of heterozygotes: heterozygotes are resistant to DDT
Canton-S flies; Dose 0.2
  Percent Dead Cantons-S: 11.7%
Canton-S flies; Dose 0.5
  Percent Dead Cantons-S: 8.3%
Canton-S flies; Dose 1
  Percent Dead Cantons-S: 6.7%
Canton-S flies; Dose 2
  Percent Dead Cantons-S: 15.0%
Canton-S flies; Dose 5
  Percent Dead Cantons-S: 35.0%
Canton-S flies; Dose 8
  Percent Dead Cantons-S: 48.3%
Canton-S flies; Dose 10
  Percent Dead Cantons-S: 43.3%
Canton-S flies; Dose 15
  Percent Dead Cantons-S: 75.0%
Canton-S flies; Dose 20
  Percent Dead Cantons-S: 71.7%

## CC1(C)[C@H](C(=O)O[C@H](C#N)c2cccc(Oc3ccccc3)c2)[C@@H]1C=C(Br)Br [Deltamethrin]
[1]
  Fly Line Preferentially Killed by the Toxin: Para^tsl
[1]; listed as deltamethrin
  Fly Line Preferentially Killed by the Toxin: more toxic to para^tsl flies than to Canton-S flies
[1]; individual doses
  Preferential killing when tested by individual doses: preferentially killed para^tsl flies
para^tsl flies; Dose 0.2
  Percent Dead Para^tsl: 98.3%
para^tsl flies; Dose 0.5
  Percent Dead Para^tsl: 100%
para^tsl flies; Dose 1
  Percent Dead Para^tsl: 85.0%
para^tsl flies; Dose 2
  Percent Dead Para^tsl: 100%
para^tsl flies; Dose 5
  Percent Dead Para^tsl: 100%
para^tsl flies; Dose 8
  Percent Dead Para^tsl: 100%
para^tsl flies; Dose 10
  Percent Dead Para^tsl: 98.3%
para^tsl flies; Dose 15
  Percent Dead Para^tsl: 100%
para^tsl flies; Dose 20
  Percent Dead Para^tsl: 100%
para^tsl flies; Female, LD50 over LD50 of para^tsl males
  Resistance Ratio: 1.4
para^tsl flies; Male, denominator line
  Resistance Ratio: 1.0*
Canton-S flies; Female
  Resistance Ratio: 24.7
Canton-S flies; Male
  Resistance Ratio: 9.9
Canton-S flies; Dose 0.2
  Percent Dead Cantons-S: 31.7%
Canton-S flies; Dose 0.5
  Percent Dead Cantons-S: 56.7%
Canton-S flies; Dose 1
  Percent Dead Cantons-S: 26.7%
Canton-S flies; Dose 2
  Percent Dead Cantons-S: 93.3%
Canton-S flies; Dose 5
  Percent Dead Cantons-S: 100%
Canton-S flies; Dose 8
  Percent Dead Cantons-S: 96.7%
Canton-S flies; Dose 10
  Percent Dead Cantons-S: 98.3%
Canton-S flies; Dose 15
  Percent Dead Cantons-S: 100%
Canton-S flies; Dose 20
  Percent Dead Cantons-S: 98.3%
Heterozygous fly lines [3]; Heterozygotes, Female, LD50 over LD50 of para^tsl males
  Resistance Ratio: 21.5
Heterozygous fly lines [3]; from Table 8
  Resistance of heterozygotes: resistant to deltamethrin and resistance is dominant

## CC(Cc1ccc(C(C)(C)C)cc1)CN1C[C@@H](C)O[C@@H](C)C1 (stereo partly shown) [Fenpropimorph]
[4]
  Resistance Ratio: 0.9
  Resistance Type: Neutral

## OC(c1ccc(Cl)cc1)(c1cncnc1)c1ccccc1Cl (stereo not shown) [Ferarimol]
[4]
  Resistance Ratio: 0.3
  Possible Resistance Type: Negative
  Resistance Type: Negative

## O=c1c2cc(F)ccc2nc(-n2cncn2)n1-c1ccc(Cl)cc1Cl [Fluquinconazole]
[4]
  Resistance Ratio: 0.4
  Resistance Type: Negative

## C[Si](Cn1cncn1)(c1ccc(F)cc1)c1ccc(F)cc1 [Flusilazole]
[4]
  Resistance Ratio: 4.2
  Resistance Type: Positive

## C=CCOC(Cn1ccnc1)c1ccc(Cl)cc1Cl (stereo not shown) [Imazalil]
[4]
  Resistance Ratio: 5.0
  Resistance Type: Positive

## OC(c1ccc(F)cc1)(c1cncnc1)c1ccccc1Cl (stereo not shown) [Nuarimol]
[4]
  Resistance Ratio: 0.4
  Possible Resistance Type: Negative
  Resistance Type: Negative

## CC1(C)[C@H](/C=C(\Cl)C(F)(F)F)[C@@H]1C(=O)O[C@@H](C#N)c1cccc(Oc2ccccc2)c1 [PP321]
[1]
  Fly Line Preferentially Killed by the Toxin: Neither

## Cc1c(F)c(F)c(COC(=O)[C@H]2[C@@H](/C=C(\Cl)C(F)(F)F)C2(C)C)c(F)c1F [PP993]
[1]
  Fly Line Preferentially Killed by the Toxin: Canton-S

## CC1(C)C(C=C(Cl)Cl)C1C(=O)OCc1cccc(Oc2ccccc2)c1 (stereo not shown) [Permethrin]
[1]
  Fly Line Preferentially Killed by the Toxin: Para^tsl
[1]; listed as permethrin
  Fly Line Preferentially Killed by the Toxin: more toxic to para^tsl flies than to Canton-S flies

## CCCN(CCOc1c(Cl)cc(Cl)cc1Cl)C(=O)n1ccnc1 [Prochloraz]
[4]
  Resistance Ratio: 3.3
  Resistance Type: Positive

## CC(C)=CC1C(C(=O)OCc2coc(Cc3ccccc3)c2)C1(C)C (stereo not shown) [Resmethrin]
[1]
  Fly Line Preferentially Killed by the Toxin: Para^tsl

## CC(C)(C)C(O)(CCc1ccc(Cl)cc1)Cn1cncn1 (stereo not shown) [Tebuconazole]
[4]
  Resistance Ratio: 3.3
  Resistance Type: Positive

## CC1(C)C(C=C(Cl)Cl)C1C(=O)OC(C#N)c1ccc(F)c(Oc2ccccc2)c1 (stereo not shown) [Tempo]
[1]
  Fly Line Preferentially Killed by the Toxin: Para^tsl

## CC(C)(C)C(O)C(Oc1ccc(Cl)cc1)n1cncn1 (stereo not drawn) [Triadimenol, (1RS,2RS;1RS,2RS)-1-(4chlorophenoxy)-3,3-dimethyl-1-(1H-1,2,4-trizol-1-yl) butan-1-o]
[4]
  Resistance Ratio: 31

## CCCOC/C(=N\c1ccc(Cl)cc1C(F)(F)F)n1ccnc1 [Triflumizole]
[4]
  Resistance Ratio: 0.3
  Possible Resistance Type: Neutral (n.s.)†
  Resistance Type: Negative

## consensus sequence from the hard randomization, C (MEEWEVLCWTWETCERGEGQ), Z-domain fusion [C-Z]
TF-FVIIa complex
  IC50: 5.9 ± 0.9 nM

B1: AaIT: a protein isolated from Scorpion toxin (protein, UniProt P01497 19-88, looked up)
Beta-insect excitatory toxin 1: KKNGYAVDSSGKAPECLLSNYCNNECTKVHYADKGYCCLLSCYCFGLNDDKKVLEISDTRKSYCDTTIIN
[5]
  NCR in a resistance mutation line: no NCR
